Measured values: patent US20100017895A1, “Small animal model for hcv replication” (priority 2005, published 2010)

How the values were obtained:
[1] = Pharmacokinetic (PK) data, subcutaneous route; assay type: in vivo
[2] = tested on: HCV replicon in T7-11 cells; test: Subcutaneous T7-11 replicon cell model in gamma-irradiated SCID mice (bioluminescence, NS5B IFA, RT-PCR, cPARP, Ki67)
Description: Efficacy studies with T7-11 implanted mice were initiated when the bioluminescence signal was stable and approximately two logs above background. […] Control animals received human albumin.
BILN 2061 was administered at 30 mg/kg once daily starting day 21-post subcutaneous implantation of T7-11 cells.
Cell implantation. Female SCID mice were shaved at the site of cell implantation and gamma-irradiated with 3 Gy either one-day prior to or on the same day as cell implant. For subcutaneous implantation, five million cells in 0.2 ml of HBSS were implanted at the right flank.
Whole body in vivo imaging. Anesthetized mice were injected intraperitoneally with 150 mg/kg of luciferin (Xenogen Corporation, Alameda, Calif.). After 10-20 minutes, mice were imaged using a CCD camera in the Xenogen IVIS™ imaging system. The bioluminescence signal intensity was quantified using Living Image Software (Xenogen Corporation, Alameda, Calif.).
Statistical analysis. Differences in bioluminescence signal between control and treatment groups of mice were compared by the two-tailed Mann-Whitney test. Differences in signal among the control, treatment and rebound groups of mice and among combination groups were compared by the nonparametric Kruskal-Wallis test A P-value <0.05 was considered significant.

[3] = tested on: HCV replicon in T7-11 cells; test: Liver model with T7-11 replicon cells in gamma-irradiated SCID mice; assay type: in vivo; settings: 30 mg/kg SC once daily from day 25 post tumor cell implantation; within three days
Description: To evaluate the efficacy of IFN-α in liver, T7-11 cells were directly injected into one lobe of the liver in gamma irradiated SCID mice. […] To confirm that the luciferase signal was associated with the liver, the locations of tumors were determined by physical examination at the end of study
The antiviral effect of BILN 2061 on HCV replication was also examined. BILN 2061 was administered subcutaneously at 30 mg/kg once daily starting day 25-post tumor cell implantation.
Whole body in vivo imaging.

Substance	duration of sustained plasma exposure [1]	signal after treatment was terminated ([2]; 30 mg/kg SC QD three days, several days after termination)	adverse effect on the replicon-containing cells ([2]; 30 mg/kg SC once daily for three days)	decrease of bioluminescence signal compared to the control group ([2]; 30 mg/kg SC once daily from day 21, within three days)	fold decrease of mean bioluminescence signal as compared to the control group ([2]; two days after treatment, SC daily from day 18, BILN 2061 30 mg/kg and/or IFN-α 15,000 IU) [fold]	fold decline in bioluminescence compared to the untreated control group [3] [fold]	effect on bioluminescence signal ([2]; 1 mg/kg, over 5 days of treatment)
BILN 2061	more than 24 hr	returned to the levels similar to the untreated control group	did not have any adverse effect on the replicon-containing cells	approximately two	16	10	–
Interleukin 2 [IL-2]	–	–	–	–	–	–	no effect
